According to patent US20100222396A1 (Novartis AG, priority 2009, published 2010):

What was measured:
[1] = biological target: T1, human orexin 2 receptor (hOx2R) (Homo sapiens, UniProt O43614); test: Radioligand binding assay ([125I]orexin A competition), hOx2R; settings: CHO or HEK cell membranes, 1 h room temperature
T1 construct: expressed in transfected cells
T1 sequence (O43614 1-444): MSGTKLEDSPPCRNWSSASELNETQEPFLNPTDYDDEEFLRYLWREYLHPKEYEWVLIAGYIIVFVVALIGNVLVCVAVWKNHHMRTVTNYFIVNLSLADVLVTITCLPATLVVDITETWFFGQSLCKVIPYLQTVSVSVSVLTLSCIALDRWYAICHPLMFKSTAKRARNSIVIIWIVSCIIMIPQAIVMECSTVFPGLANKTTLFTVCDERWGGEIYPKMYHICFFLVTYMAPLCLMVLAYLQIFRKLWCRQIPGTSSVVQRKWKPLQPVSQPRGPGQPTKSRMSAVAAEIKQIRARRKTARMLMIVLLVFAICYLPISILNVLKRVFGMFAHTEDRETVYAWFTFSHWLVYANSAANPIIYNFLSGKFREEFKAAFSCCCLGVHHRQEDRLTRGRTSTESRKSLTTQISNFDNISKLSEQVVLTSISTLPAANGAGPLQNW
Procedure, shortened: (§1)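 Membranes from CHO or HEK cells expressing the human receptor, incubated 1 h at room temperature with […] [125I]orexin A and compound in HEPES pH 7.5 buffer with BSA, MgCl2, CaCl2 and tween.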

[2] = biological target: T2, human orexin 1 receptor (hOx1R) (Homo sapiens, UniProt O43613); test: Radioligand binding assay ([125I]orexin A competition), hOx1R; settings: CHO or HEK cell membranes, 1 h room temperature
T2 construct: expressed in transfected cells
T2 sequence (O43613 1-425): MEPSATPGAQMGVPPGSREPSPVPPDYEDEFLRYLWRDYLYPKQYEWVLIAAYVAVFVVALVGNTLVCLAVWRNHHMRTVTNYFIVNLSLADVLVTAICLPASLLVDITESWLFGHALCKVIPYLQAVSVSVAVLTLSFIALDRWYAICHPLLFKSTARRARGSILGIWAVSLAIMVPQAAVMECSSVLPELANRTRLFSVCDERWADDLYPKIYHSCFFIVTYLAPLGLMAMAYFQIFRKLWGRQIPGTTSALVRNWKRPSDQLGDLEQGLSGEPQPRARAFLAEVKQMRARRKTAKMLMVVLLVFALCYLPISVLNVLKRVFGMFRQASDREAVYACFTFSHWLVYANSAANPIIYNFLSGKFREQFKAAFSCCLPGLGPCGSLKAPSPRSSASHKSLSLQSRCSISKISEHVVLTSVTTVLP
Procedure, shortened: as §1

[3] = biological target: T1, human orexin 2 receptor (hOx2R); test: Calcium accumulation in cells (FLIPR), antagonism of orexin A, hOx2R; type: cell-based; settings: for Kd: cells expressing human orexin 2 receptor, IC50 vs orexin A converted by Cheng and Prusoff correction
Procedure, shortened: (§2)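 Serum-starved receptor-expressing cells were loaded with Fluo-4-AM (2 μM) plus probenecid (0.1 mM) in HEPES buffer, pH 7.4, with 1% BSA, and Ca2+ fluorescence was read on FLIPR. Compounds (10^−9–10^−5 M) were added first, and orexin A was added one hour later to measure antagonism.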

[4] = biological target: T2, human orexin 1 receptor (hOx1R); test: Calcium accumulation in cells (FLIPR), antagonism of orexin A, hOx1R; type: cell-based; settings: for Kd: cells expressing human orexin 1 receptor, IC50 vs orexin A converted by Cheng and Prusoff correction; for inhibition at 10 µM: measured at a concentration of 10 μM of compound (cells marked ^a)
Procedure, shortened: as §2

Row | SMILES | Kd [1] [nM] | Kd [2] [nM] | Kd [3] [nM] | Kd [4] [nM] | inhibition at 10 µM [4] [%] | inhibition at 10 µM ([3]; measured at a concentration of 10 μM of compound (cells marked ^a)) [%]
1 | CN(C(=O)c1cc(C(F)(F)F)cc(C(F)(F)F)c1)[C@@H](CCNC(=O)c1ccccn1)Cc1ccccc1 [Example 74, Pyridine-2-carboxylic acid {(R)-3-[(3,5-bis-trifluoromethyl-benzoyl)-methyl-amino]-4-phenyl-butyl}-amide] | > 10000 | > 10000 | 1610 | 3260 | – | –
2 | CN(C(=O)c1cc(C(F)(F)F)cc(C(F)(F)F)c1)[C@H](CCNC(=O)c1ccccn1)Cc1ccccc1 [Example 5, Pyridine-2-carboxylic acid {(S)-3-[(3,5-bis-trifluoromethyl-benzoyl)-methyl-amino]-4-phenyl-butyl}-amide] | 18 | 999 | 8 | 511 | – | –
3 | COc1ccc(C(=O)N(C)[C@H](CCNC(=O)c2nc3ccccc3n2C)Cc2ccccc2)cc1OC [Example 80, 1-Methyl-1H-benzoimidazole-2-carboxylic acid {(S)-3-[(3,4-dimethoxy-benzoyl)-methyl-amino]-4-phenyl-butyl}-amide] | 98 | 59 | 97 | 541 | – | –
4 | CN(C(=O)c1ccccc1)[C@H](CCNC(=O)c1cccc2c1OCO2)Cc1ccccc1 [Example 32, Benzo[1,3]dioxole-4-carboxylic acid [(S)-3-(benzoyl-methyl-amino)-4-phenyl-butyl]-amide] | 435 | > 10000 | 67 | – | 24 | –
5 | CCCOc1cccc(C(=O)N(C)[C@H](CCNC(=O)c2cccn2C)Cc2ccccc2)c1 [Example 126] | 87 | 2480 | 56 | 2100 | – | –
6 | CN(C(=O)c1cccc2ccccc12)[C@H](CCNC(=O)c1ccccn1)Cc1ccc(Cl)cc1 [Example 35, Pyridine-2-carboxylic acid {(S)-4-(4-chloro-phenyl)-3-[methyl-(naphthalene-1-carbonyl)-amino]-butyl}-amide] | 468 | 1330 | 9 | 80 | – | –
7 | Cc1nc(C(=O)NCC[C@H](Cc2ccccc2)N(C)C(=O)c2ccc3c(c2)OCO3)c(-c2ccccc2F)s1 [Example 83, 5-(2-Fluoro-phenyl)-2-methyl-thiazole-4-carboxylic acid {(S)-3-[(benzo[1,3]dioxole-5-carbonyl)-methyl-amino]-4-phenyl-butyl}-amide] | 21 | 54 | 3 | 42 | – | –
8 | CN(C(=O)c1cccc2c1ccn2C)[C@H](CCNC(=O)c1ccccn1)Cc1ccccc1 [Example 40, 1-Methyl-1H-indole-4-carboxylic acid {(S)-1-benzyl-3-[(pyridine-2-carbonyl)-amino]-propyl}-methyl-amide] | 619 | 125 | 221 | 193 | – | –
9 | CN(C(=O)c1ccc2c(c1)CCO2)[C@H](CCNC(=O)c1ccccn1)Cc1ccccc1 [Example 29, Pyridine-2-carboxylic acid {(8)-3-[(2,3-dihydro-benzofuran-5-carbonyl)-methyl-amino]-4-phenyl-butyl}-amide] | 374 | 518 | 157 | 2190 | – | –
10 | CCOc1cccc(C(=O)N(C)[C@H](CCNC(=O)c2cccn2C)Cc2ccccc2)c1 [Example 121, 1-Methyl-1H-pyrrole-2-carboxylic acid {(S)-3-[(3-ethoxy-benzoyl)-methyl-amino]-4-phenyl-butyl}-amide] | 8 | 206 | 2 | 696 | – | –
11 | Cc1cc(C)cc(C(=O)N(C)[C@H](CCNC(=O)c2ccccn2)Cc2ccccc2)c1 [Example 97, Pyridine-2-carboxylic acid {(S)-3-[(3,5-dimethyl-benzoyl)-methyl-amino]-4-phenyl-butyl}-amide] | 30 | 46 | 39 | 185 | – | –
12 | CN(C(=O)c1cccc2ccccc12)[C@H](CCNC(=O)c1nc2ccccc2n1C)Cc1ccccc1 [Example 18, 1-Methyl-1H-benzoimidazole-2-carboxylic acid {(S)-3-[methyl-(naphthalene-1-carbonyl)-amino]-4-phenyl-butyl}-amide] | 129 | 332 | 14 | 100 | – | –
13 | CN(C(=O)c1ccc2ccccc2c1)[C@H](CCNC(=O)c1nc2ccccc2n1C)Cc1ccc(F)cc1 [Example 57, 1-Methyl-1H-benzoimidazole-2-carboxylic acid {(S)-4-(4-fluoro-phenyl)-3-[methyl-(naphthalene-2-carbonyl)-amino]-butyl}-amide] | 2850 | 443 | 26 | 12 | – | –
14 | CN(C(=O)c1cc(F)cc(F)c1)[C@H](CCNC(=O)c1ccccn1)Cc1ccccc1 [Example 34, Pyridine-2-carboxylic acid {(S)-3-[(3,5-difluoro-benzoyl)-methyl-amino]-4-phenyl-butyl}-amide] | 466 | 253 | 558 | 731 | – | –
15 | CCCN(C(=O)c1ccc2c(c1)OCO2)[C@H](CCNC(=O)c1ccccn1)Cc1ccccc1 [Example 13, Pyridine-2-carboxylic acid {(S)-3-[(benzo[1,3]dioxole-5-carbonyl)-propyl-amino]-4-phenyl-butyl}-amide] | 107 | 810 | 74 | 2210 | – | –
16 | CN(C(=O)c1ccc2c(c1)OCO2)[C@H](CCNC(=O)c1nccn1C)Cc1ccccc1 [Example 78, 1-Methyl-1H-imidazole-2-carboxylic acid {(S)-3-[(benzo[1,3]dioxole-5-carbonyl)-methyl-amino]-4-phenyl-butyl}-amide] | 24 | 660 | 28 | 1470 | – | –
17 | CN(C(=O)c1ccc2c(ccn2C)c1)[C@H](CCNC(=O)c1ccccn1)Cc1ccccc1 [Example 84, 1-Methyl-1H-indole-5-carboxylic acid {(S)-1-benzyl-3-[(pyridine-2-carbonyl)-amino]-propyl}-methyl-amide] | 1330 | 30 | 809 | 50 | – | –
18 | COc1cc(OC)cc(C(=O)N(C)[C@H](CCNC(=O)c2ccccn2)Cc2ccccc2)c1 [Example 41, Pyridine-2-carboxylic acid {(S)-3-[(3,5-dimethoxy-benzoyl)-methyl-amino]-4-phenyl-butyl}-amide] | 484 | 1730 | 196 | 1600 | – | –
19 | CCCCC(=O)NCCC(Cc1ccccc1)N(C)C(=O)c1cc(C(F)(F)F)cc(C(F)(F)F)c1 (centres unmarked) [Example 39, N-(1-Benzyl-3-pentanoylamino-propyl)-N-methyl-3,5-bis-trifluoromethyl-benzamide] | 610 | > 10000 | 419 | – | 0 | –
20 | CN(C(=O)c1ccccc1)[C@H](CCNC(=O)c1ccccn1)Cc1ccc(Cl)cc1 [Example 70, Pyridine-2-carboxylic acid [(S)-3-(benzoyl-methyl-amino)-4-(4-chloro-phenyl)-butyl]-amide] | 8310 | > 10000 | – | – | 0 | 29
21 | COc1cc(F)cc(C(=O)N(C)[C@H](CCNC(=O)c2cccn2C)Cc2ccccc2)c1 [Example 105, 1-Methyl-1H-pyrrole-2-carboxylic acid {(S)-3-[(3-fluoro-5-methoxy-benzoyl)-methyl-amino]-4-phenyl-butyl}-amide] | 12 | 286 | 7 | 811 | – | –
22 | CN(C(=O)c1ccc2c(c1)OCO2)[C@H](CCNC(=O)c1cccn1C)Cc1ccccc1 [Example 76] | 4 | 94 | 1 | 376 | – | –
23 | CN(C(=O)c1ccc2ccccc2c1)[C@H](CCNC(=O)c1nc2ccccc2n1C)Cc1ccccc1 [Example 44, 1-Methyl-1H-benzoimidazole-2-carboxylic acid {(S)-3-[methyl-(naphthalene-2-carbonyl)-amino]-4-phenyl-butyl}-amide] | 781 | 82 | 90 | 33 | – | –
